Data on two molecules can be found in patent publication US20120328696A1, “ANTI-PARKINSONIAN COMPOUND ACETYLSALICYLIC ACID MALTOL ESTER” (Hutecs Korea Pharmaceutical Co., Ltd., priority 2008, published 2012).

Common to all, as to format: in vivo
Assay [1] relates to GPx-1 (+/+)- and GPx-1 (−/−)-mice. Nature of the assay: Rota-rod test after MA. Conditions: PKC inhibitors intra-striatal (chelerythrine 0.2 ug/head, rottlerin 3.0 ug/head significant); MA 8 mg/kg i.p. x4; GPx-1 (+/+) and (−/−) mice. How it is done: (§1) The mice received four times of MA (8 mg/kg, ip) or saline as a 2 hr-time interval. Chemicals (AME, EBS, and PKC inhibitors) were administrated for 5 consecutive days (twice daily), and were given 2 times at 4 hr and 30 min before the first MA injection as shown in the experimental schedule. Animals were sacrificed at 4 hrs and 3 days after the final MA administration.
The apparatus (Ugo Basile model 7650, Comerio, VA, Italy) consisted of a base platform and a rotating rod with a nonslippery surface. The rod was placed at a height of 15 cm from the base. The rod, 30 cm in length, was divided into 5 equal sections by 6 opaque disks (so that the subjects cannot be distracted by one another) To assess motor performance, the mice first trained on the apparatus 2 minutes at a constant rate of 4 r.p.m. per 30 s prior to the test. The test was performed 30 minutes after training and an accelerating paradigm was applied, starting from a rate of 4 r.p.m. to a maximum speed of 40 r.p.m., then the rotation speed was kept constant at 40 r.p.m. for a maximum of 300 s. The duration for which the animal could maintain balance on the rotating drum was measured as the rotarod latency, with a maximal cut-off time of 300 s.
A general note: The rotarod test checks motor coordination on a turning rod.

For assay [2] the test system is unchanged. Nature of the assay: MA-induced hyperthermia (rectal temperature). Conditions: PKC inhibitors intra-striatal (doses of Table 1); MA 8 mg/kg i.p. x4; GPx-1 (+/+) and GPx-1 (−/−) mice. The procedure:
as §1
Rectal temperature was measured in the MA- or saline-treated mice. Measurement was performed at constant daytime intervals starting at 9:00 A.M. to avoid the influence on circadian variations. Rectal temperature was measured by inserting a thermometer probe lubricated with oil at least 3 cm into the rectum of the mice. To prevent sudden movements occurring especially in MA-treated mice, animals were gently handled with a wool glove while their tail was moved to allow the probe insertion. This was done to prevent the effects of restrain stress on rectal temperature. When the attempt to insert probe was not successful (i.e., sudden movements of the animal or the need to restrain the mouse), the animal was excluded from the groups.

Assay [3] shares this test system. Nature of the assay: Locomotor activity after MA. Conditions: PKC inhibitors intra-striatal (chelerythrine 0.2 ug/head, rottlerin 3.0 ug/head significant); MA 8 mg/kg i.p. x4; GPx-1 (+/+) and (−/−) mice. The procedure:
as §1
Locomotor activity was measured for 30 min 3 days after the last MA administration using an automated video-tracking system (Noldus Information Technology, Wagenin, The Netherlands). Four test boxes (40×40×30 cm high) were operated simultaneously by an IBM computer. Mice were studied individually during locomotion in each test box, where they were adapted for 5 min before starting the experiment. […] The distance traveled in cm by the animals in horizontal locomotor activity was analyzed. Data were collected and analyzed between 09:00 and 17:00 h (Kim et al., 2001).

Take `Cn1c2ccccc2c2c3c(c4c5ccccc5n(CCC#N)c4c21)CNC3=O` [Go 6976]: the “effect on MA-induced impairment in rota-rod performance” value in assay [1] is “did not affect MA-induced behavioral impairments”. The “effect on MA-induced hyperthermia” value in assay [2] is “did not show any significant effect”. Moreover, the “effect on MA-induced impairment in locomotor activity” value in assay [3] is reported as “did not affect MA-induced behavioral impairments”.

Turning to `O=c1cc(O)cc(/C=C/c2ccc(O)c(O)c2)o1` [hispidin], in assay [1], the “effect on MA-induced impairment in rota-rod performance” value is reported as “did not affect MA-induced behavioral impairments”. Further, the “effect on MA-induced hyperthermia” value in assay [2] is given as “did not show any significant effect”. The “effect on MA-induced impairment in locomotor activity” value in assay [3] was “did not affect MA-induced behavioral impairments”.
